Test results from US5004735A, “Pharmaceutical compositions for the inhibition of tumor metastasis” (Nisshin Flour Milling Co., Ltd., priority 1988, dated 1991).

Assays:
B16-F10 melanoma [1] = test: Inhibition of lung metastasis of B16-F10 melanoma in mice, intraperitoneal olive oil solution (Example 3); format: in vivo, male C57BL/6 mice
Method: (§1) Experimental animal: male C57BL/6 mice (6 weeks old)
(§2) Tumor cell line: B16-F10 melanoma
Compounds B, D, E and F were tested for the inhibitory effect on tumor metastasis using the same experimental animal and tumor cell line as in Example 1. Test method: Mice were given 4×10^5 B16-F10 melanoma cells in 0.05 ml of serum-free RPMI 1640 medium in the foot pad of the left hind leg. A solution of Compounds B, D, E or F (0.1 or 0.2 mg) in 0.2 ml of olive oil was administered intraperitoneally every other day from day 1 to day 27 after inoculation of the melanoma cells. During this period, the size of the inoculated tumors was observed macroscopically. On day 28, the tumor-bearing legs were cut from the mice and on day 42 the mice were sacrificed. The number of metastatic nodules formed on the lung surface was counted for each mouse. 10 Animals were used per each group except for control group wherein 20 animals were used.

B16-F10 melanoma cells = test: L-PHA-sensitivity of cultured tumor cells (Example 4); format: cell-based; conditions: Mus musculus, 10 μl of 50 μg/ml test compound in DMSO added on day 1 to 2 ml medium, L-PHA 50 μl of 50 μg/ml on day 2, count day 4, control 42.0, read-out: Growth inhibition by L-PHA
Method: Tumor cell culture: B16-F10 melanoma cells were incubated in RPMI 1640 medium containing 10% fetal bovine serum and antibiotics at 37° C.
Test method: B16-F10 cells (5×10^4) in 2 ml of the medium were seeded onto a plastic dish and incubation was started. On day 1, 10 μl of dimethylsulfoxide (control group) or a test compound suspended in 10 μl of dimethylsulfoxide at a concentration of 50 μg/ml (test group) was added. On day 2, 50 μl each of water was added to a half of each of the control group and the test group, and 50 μl of 50 μg/ml L-PHA solution in water was added to a remaining half. On day 4, the number of cells was counted in L-PHA-treated and untreated groups and % growth inhibition by L-PHA was calculated according to the following formula:
% Growth Inhibition=(1-N/N0)×100
in which N denotes a number of cells in the presence of L-PHA and N0 denotes a number of cells in the absence thereof.

B16-F10 melanoma [2] = test: Inhibition of tumor metastasis to lung by intravenous oily emulsions (Example 8); format: in vivo, male C57BL/6 mice; conditions: oily emulsion i.v., 9 times every three days
Method: Male C57BL/6 mice (6 weeks old) were given 4×10^5 B16-F10 melanoma cells in 0.05 ml of serum-free RPMI 1640 medium in the foot pad of the left hind leg. […] The tumor-bearing legs were cut on day 27 and the mice were sacrificed on day 41. The number of metastatic nodules formed in the lung was counted for each mouse. 10 Animals were used per each group. % Inhibition of tumor metastasis to lung was calculated on the basis of the following formula.
% Inhibition of tumor metastasis to lung=(1-M/M0)×100

B16-F10 melanoma [3] = test: Inhibition of lung metastasis of B16-F10 melanoma in mice, intraperitoneal suspension (Examples 1 and 2); format: in vivo, male C57BL/6 mice; conditions: for Number of metastatic nodules mean ± standard error / Inhibition of metastasis: day 1 to 27, day 42; for Number of metastatic nodules mean ± standard error: lung surface; for Inhibition of metastasis: lung
Method: as §1, §2
Test method: Mice were given 4×10^5 B16-F10 melanoma cells in 0.05 ml of serum-free RPMI 1640 medium in the foot pad of the left hind leg. […] During this period, the size of the inoculated tumor was observed macroscopically. On day 28, tumor-bearing legs were cut from the mice and on day 42 the mice were sacrificed. The number of metastatic nodules formed on the lung surface was counted for each mouse. 10 Animals were used per each group
Compounds G and H were tested for the inhibitory effect on tumor metastasis.

Structure (SMILES) | Growth of the inoculated tumors (in words) (B16-F10 melanoma [1]; 10 mg/Kg i.p., compared with Control) | Number of metastatic nodules mean ± standard error (B16-F10 melanoma [1]; 10 mg/kg i.p. in olive oil every other day, day 1 to 27, lung surface, day 42) | Inhibition of metastasis (B16-F10 melanoma [1]; 10 mg/kg i.p. in olive oil every other day, day 1 to 27, lung, day 42) [%] | inhibition at 50 µg/mL (stock) (B16-F10 melanoma cells) [%] | Inhibition of tumor metastasis to lung (B16-F10 melanoma [2]; 0.8 mg/kg) [%] | Number of metastatic nodules mean ± standard error (B16-F10 melanoma [3]; 5 mg/kg i.p. every other day) | Inhibition of metastasis (B16-F10 melanoma [3]; 5 mg/kg i.p. every other day) [%] | Number of metastatic nodules mean ± standard error (B16-F10 melanoma [3]; 10 mg/kg i.p. every other day) | Inhibition of metastasis (B16-F10 melanoma [3]; 10 mg/kg i.p. every other day) [%] | Inhibition of tumor metastasis to lung (B16-F10 melanoma [2]; 0.3 mg/kg) [%] | Inhibition of tumor metastasis to lung (B16-F10 melanoma [2]; 2.0 mg/kg) [%] | Inhibitory effect on tumor metastasis (in words) (B16-F10 melanoma [3]; Example 2, i.p. suspension, same method as Example 1)
CC(C)=CCC/C(C)=C/CC/C(C)=C/CC/C(C)=C/CC/C(C)=C/CC/C(C)=C/CC/C(C)=C/CC/C(C)=C/CC/C(C)=C/CCC(C)CCO (centres unmarked) [Compound B] | about the same as that of Control | 11.7 ± 6.2 | 63 | 36.6 | 54 | – | – | – | – | – | – | –
CC(C)=CCC/C(C)=C/CC/C(C)=C/CC/C(C)=C/CC/C(C)=C/CC/C(C)=C/CC/C(C)=C/CC/C(C)=C/CC/C(C)=C/CCC(C)CCOP(=O)(O)O (centres unmarked) [Compound C] | – | – | – | 32.7 | 78 | 1.2 ± 0.8 | 94 | 0 | 100 | 79 | 85 | –
CC(C)=CCC/C(C)=C/CC/C(C)=C/CC/C(C)=C/CC/C(C)=C/CC/C(C)=C/CC/C(C)=C/CC/C(C)=C/CC/C(C)=C/CCC(C)CCOP(=O)(O)O (centres unmarked) [Compound G] | – | – | – | – | – | – | – | – | – | – | – | essentially the same as that of Compound C
